From paper PMC4669708 (Cell Death & Disease, 2015)

What was measured:
Experiment in all cases: c-ponatinib pulldown LC-MS/MS
Assay type in all cases: binding
ABL2 = ABL2 (Homo sapiens, UniProt P42684)
Protocol: (§1) Drug-affinity matrices were prepared as described previously.[51] In brief, 25 nmol of c-ponatinib were immobilized on 50 μl NHS-activated Sepharose 4 Fast Flow beads (GE Healthcare Bio-Sciences AB, Uppsala, Sweden). 10 mg whole cell lysate was used as protein input per replicate. Affinity chromatography and elution were performed in duplicate. After elution, the enriched proteins were reduced with dithiothreitol (DTT) and cysteine residues were alkylated by incubation with iodoacetamide. The samples were digested with modified porcine trypsin (Promega). Five percent of the digested eluates were purified and concentrated by C18 reversed-phase material. Subsequently, samples were analyzed in duplicates by gel-free one-dimensional LCMS.
(§2) Precursor and MS/MS peaks were extracted from the RAW files and saved in the MGF format using msconvert tool (ProteoWizard Library v2.1.2708, www.proteowizard.sourceforge.net) for subsequent protein identification. An initial database search was performed with broader mass tolerance and conservative score threshold to re-calibrate the mass lists for optimal final protein identification. For the initial protein database search, Mascot (www.matrixscience.com, v2.3.02) was used. Error tolerances on the precursor and fragment ions were ±10 p.p.m. and ±0.6 Da, respectively, and the database search limited to fully-tryptic peptides with maximum one missed cleavage, carbamidomethyl cysteine and methionine oxidation set as fixed and variable modifications, respectively. The Mascot peptide ion score threshold was set to 30, and at least three peptide identifications per protein were required. Searches were performed against the human UniProtKB/SwissProt database (www.uniprot.org release 2013.01) including all protein isoforms. The initial peptide identifications were used to deduce independent linear transformations for precursor and fragment masses that would minimize the mean square deviation of measured masses from theoretical. Re-calibrated mass list files were searched against the same human protein database by a combination of Mascot and Phenyx (GeneBio SA, Geneva, Switzerland; version 2.5.14) search engines using narrower mass tolerances (±4 p.p.m. and ±0.3 Da). One missed tryptic cleavage site was allowed. Carbamidomethyl cysteine was set as a fixed modification and oxidized methionine was set as a variable modification. To validate the proteins, Mascot and Phenyx output files were processed by internally developed parsers. Proteins with ≥2 unique peptides above a score T1, or with a single peptide above a score T2 were selected as unambiguous identifications. Additional peptides for these validated proteins with score >T3 were also accepted. For Mascot searches, the following thresholds were used: T1=14, T2=40 and T3=10; Phenyx thresholds were set to 4.2, 4.75 and 3.5, respectively (P-value<10^−3). The validated proteins retrieved by the two algorithms were merged, any spectral conflicts discarded and grouped according to shared peptides. A false discovery rate of <1% for protein identifications and <0.1% for peptides (including the ones exported with lower scores) was determined by applying the same procedure against a database of reversed protein sequences. […] In addition to Mascot protein scores that were proposed as an estimate of protein abundance by the original algorithm, the modified version also included Phenyx protein scores and spectral counts. The algorithm first estimated three measure-specific P-values for each putative interaction, and, in contrast to,[69] P-value calculation utilized the quantiles of the measurements rather than the original data. The Fisher's method was used to combine the three resulting P-values into a single P-value for drug–protein interaction specificity. We have also correlated interaction P-values with the magnitude of competition effect represented by the fold reduction of spectral counts on free compound competition. […]

IRAK4 = biological target: T1, IRAK4 (Homo sapiens, UniProt Q9NWZ3)
T1 sequence (Q9NWZ3 1-460): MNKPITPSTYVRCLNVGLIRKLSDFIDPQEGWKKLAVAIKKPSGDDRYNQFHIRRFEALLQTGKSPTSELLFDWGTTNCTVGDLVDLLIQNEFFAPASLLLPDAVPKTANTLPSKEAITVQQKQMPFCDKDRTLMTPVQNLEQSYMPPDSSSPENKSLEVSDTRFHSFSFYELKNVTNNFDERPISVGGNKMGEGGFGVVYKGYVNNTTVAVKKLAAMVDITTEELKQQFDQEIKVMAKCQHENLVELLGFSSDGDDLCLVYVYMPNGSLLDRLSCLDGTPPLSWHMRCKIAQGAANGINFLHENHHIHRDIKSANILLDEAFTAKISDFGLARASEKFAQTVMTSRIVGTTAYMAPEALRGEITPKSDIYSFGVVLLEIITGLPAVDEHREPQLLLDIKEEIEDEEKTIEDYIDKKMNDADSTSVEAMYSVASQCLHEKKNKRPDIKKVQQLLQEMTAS
Protocol: as §1, §2

RIPK1 = biological target: T2, RIPK1 (Homo sapiens, UniProt Q13546)
T2 sequence (Q13546 1-671): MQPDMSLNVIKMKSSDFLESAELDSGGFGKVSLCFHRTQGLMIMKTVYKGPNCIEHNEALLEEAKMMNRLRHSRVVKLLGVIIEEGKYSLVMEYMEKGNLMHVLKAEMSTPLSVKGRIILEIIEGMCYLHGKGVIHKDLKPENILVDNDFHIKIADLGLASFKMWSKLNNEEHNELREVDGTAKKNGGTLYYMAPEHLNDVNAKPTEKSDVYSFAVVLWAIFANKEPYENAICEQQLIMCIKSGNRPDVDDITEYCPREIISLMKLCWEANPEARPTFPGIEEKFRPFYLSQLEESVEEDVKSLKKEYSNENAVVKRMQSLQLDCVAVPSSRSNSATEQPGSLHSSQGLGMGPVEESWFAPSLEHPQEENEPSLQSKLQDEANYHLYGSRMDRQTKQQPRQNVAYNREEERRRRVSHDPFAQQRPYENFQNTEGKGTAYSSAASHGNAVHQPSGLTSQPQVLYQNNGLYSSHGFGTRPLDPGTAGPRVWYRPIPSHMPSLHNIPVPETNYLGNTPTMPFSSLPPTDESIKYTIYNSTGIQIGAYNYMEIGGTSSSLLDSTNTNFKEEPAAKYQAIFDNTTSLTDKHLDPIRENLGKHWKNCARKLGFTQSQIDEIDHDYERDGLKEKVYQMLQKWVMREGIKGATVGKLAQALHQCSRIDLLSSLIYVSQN
Protocol: as §1, §2

Chain of ABL2 (P42684 whole entry): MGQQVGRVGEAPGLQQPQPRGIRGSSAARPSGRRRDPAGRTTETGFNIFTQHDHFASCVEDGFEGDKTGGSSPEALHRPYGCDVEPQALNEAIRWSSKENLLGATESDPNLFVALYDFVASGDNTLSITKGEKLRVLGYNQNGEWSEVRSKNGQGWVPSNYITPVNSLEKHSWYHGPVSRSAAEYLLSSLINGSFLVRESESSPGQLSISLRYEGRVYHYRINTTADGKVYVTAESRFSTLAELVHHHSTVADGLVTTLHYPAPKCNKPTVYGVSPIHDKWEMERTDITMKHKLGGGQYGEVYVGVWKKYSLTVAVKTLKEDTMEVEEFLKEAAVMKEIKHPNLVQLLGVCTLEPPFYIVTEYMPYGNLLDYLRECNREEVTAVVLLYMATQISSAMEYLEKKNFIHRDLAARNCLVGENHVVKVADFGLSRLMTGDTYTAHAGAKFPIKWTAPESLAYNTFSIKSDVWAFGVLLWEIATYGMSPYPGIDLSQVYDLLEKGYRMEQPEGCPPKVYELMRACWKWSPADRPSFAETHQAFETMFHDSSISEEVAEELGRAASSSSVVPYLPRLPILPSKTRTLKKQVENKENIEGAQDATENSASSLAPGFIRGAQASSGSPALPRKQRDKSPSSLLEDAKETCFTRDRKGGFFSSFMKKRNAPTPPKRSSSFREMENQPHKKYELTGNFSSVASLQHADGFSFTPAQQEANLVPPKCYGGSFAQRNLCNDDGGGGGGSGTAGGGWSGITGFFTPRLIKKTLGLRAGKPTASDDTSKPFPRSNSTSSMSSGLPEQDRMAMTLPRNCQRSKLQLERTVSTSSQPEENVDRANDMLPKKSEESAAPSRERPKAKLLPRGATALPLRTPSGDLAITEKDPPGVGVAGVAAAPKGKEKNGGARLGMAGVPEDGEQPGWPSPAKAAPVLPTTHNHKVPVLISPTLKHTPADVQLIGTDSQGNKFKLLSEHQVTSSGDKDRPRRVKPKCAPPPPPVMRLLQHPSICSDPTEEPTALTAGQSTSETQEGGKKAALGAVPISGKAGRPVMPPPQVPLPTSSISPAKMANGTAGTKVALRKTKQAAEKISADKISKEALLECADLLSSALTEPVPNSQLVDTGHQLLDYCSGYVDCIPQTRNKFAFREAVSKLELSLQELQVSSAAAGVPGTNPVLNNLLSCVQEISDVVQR

- Av. SC comp. (ABL2; + free ponatinib): 0
- Total SC comp. (ABL2; + free ponatinib): 0
- Av. SC (ABL2; no competitor): 17.25
- Total SC (ABL2; no competitor): 69
- Av. SC comp. (IRAK4; + free ponatinib): 2.5
- Total SC comp. (IRAK4; + free ponatinib): 10
- Av. SC (IRAK4; no competitor): 8.5
- Total SC (IRAK4; no competitor): 34
- Av. SC comp. (RIPK1; + free ponatinib): 0
- Total SC comp. (RIPK1; + free ponatinib): 0
- Av. SC (RIPK1; no competitor): 1.5
- Total SC (RIPK1; no competitor): 6
Structure (SMILES): Cc1ccc(C(=O)Nc2ccc(CN3CCN(CCCN)CC3)c(C(F)(F)F)c2)cc1C#Cc1cnc2cccnn12 [c-ponatinib]
